Holding throughout (format): biochemical
The target of assay [1] is recombinant human GAA (acid alpha-glucosidase) (Homo sapiens, UniProt P10253). Nature of the assay: Acid alpha-glucosidase (GAA) assay (4-methylumbelliferyl-alpha-D-pyranoside substrate, fluorescence). The gist of the method:
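IC50 from 4-PL curve fit of percent inhibition, based on fluorescence (365/440 nm) of released methylumbelliferone relative to uninhibited enzyme. Compound dilutions and human GAA incubated 60 min, 37 °C, before 20 min substrate reaction at 37 °C, quenched at pH 10.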

Assay [2] has as its target rat sucrase (partially purified alpha-glucosidase from intestinal rat powder) (Rattus norvegicus, UniProt P23739). The assay can be described thus: Intestinal alpha-glucosidase assay, sucrose substrate (Glucose GO Kit). The gist of the method: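 First step: 60 min, 37 °C, compound with partially purified rat intestinal alpha-glucosidase. Next, maltose or sucrose for 30 min at 37 °C, ended at 90 °C for 5 min. Glucose quantified enzymatically; concentration–inhibition data fitted 4-PL for IC50.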

The target of assay [3] is T1, recombinant human GBA (beta-glucocerebrosidase) (Homo sapiens, UniProt P04062).
T1 sequence (P04062 40-536): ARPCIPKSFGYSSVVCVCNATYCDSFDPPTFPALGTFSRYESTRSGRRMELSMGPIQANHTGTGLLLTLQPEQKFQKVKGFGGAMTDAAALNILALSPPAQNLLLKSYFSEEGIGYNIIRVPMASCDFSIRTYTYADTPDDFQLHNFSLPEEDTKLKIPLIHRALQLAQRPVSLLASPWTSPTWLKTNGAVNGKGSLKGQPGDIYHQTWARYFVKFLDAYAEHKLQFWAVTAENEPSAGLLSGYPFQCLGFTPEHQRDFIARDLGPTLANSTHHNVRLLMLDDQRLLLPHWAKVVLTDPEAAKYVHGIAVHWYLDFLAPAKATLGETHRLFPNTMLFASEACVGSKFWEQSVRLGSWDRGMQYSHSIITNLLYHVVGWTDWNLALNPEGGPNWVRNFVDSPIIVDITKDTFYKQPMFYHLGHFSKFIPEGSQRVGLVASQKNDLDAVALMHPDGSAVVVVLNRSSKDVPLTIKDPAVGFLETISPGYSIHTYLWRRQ
Nature of the assay: Beta-glucocerebrosidase (GBA, glucosylceramidase) assay (4-methylumbelliferyl-beta-D-pyranoside substrate, fluorescence). The procedure, abridged: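 IC50 by four-parameter fit of percent inhibition, with product fluorescence (365/440 nm) read after a glycine/NaOH pH 10 stop. Compound and commercial recombinant human enzyme were incubated 60 min at 37 °C before a further 60 min at 37 °C with 4-methylumbelliferyl-beta-D-pyranoside substrate.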

The target of assay [4] is T2, recombinant alpha-glucosidase II (murine full-length glucosidase II, alpha and beta subunits, Glu 2) (Mus musculus, UniProt Q8BHN3).
T2 construct: made in house; host or cells: HEK-293T cells transduced with BacMam viruses (75% alpha, 25% beta); protein harvested from culture supernatant
T2 sequence (O08795 15-521): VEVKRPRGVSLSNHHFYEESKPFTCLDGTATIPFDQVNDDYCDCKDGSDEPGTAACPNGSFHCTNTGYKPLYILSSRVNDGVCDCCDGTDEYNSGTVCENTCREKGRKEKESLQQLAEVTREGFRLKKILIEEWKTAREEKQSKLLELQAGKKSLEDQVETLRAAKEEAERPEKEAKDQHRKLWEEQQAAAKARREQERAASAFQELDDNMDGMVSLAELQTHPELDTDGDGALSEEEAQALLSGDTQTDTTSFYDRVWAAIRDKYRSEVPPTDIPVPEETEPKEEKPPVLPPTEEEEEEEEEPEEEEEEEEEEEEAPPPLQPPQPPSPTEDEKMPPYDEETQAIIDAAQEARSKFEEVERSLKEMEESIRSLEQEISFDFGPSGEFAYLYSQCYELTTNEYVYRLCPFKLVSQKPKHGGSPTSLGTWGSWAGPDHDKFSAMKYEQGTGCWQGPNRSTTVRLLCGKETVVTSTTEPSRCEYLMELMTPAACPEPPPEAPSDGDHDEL
T2 sequence (Q8BHN3 33-944): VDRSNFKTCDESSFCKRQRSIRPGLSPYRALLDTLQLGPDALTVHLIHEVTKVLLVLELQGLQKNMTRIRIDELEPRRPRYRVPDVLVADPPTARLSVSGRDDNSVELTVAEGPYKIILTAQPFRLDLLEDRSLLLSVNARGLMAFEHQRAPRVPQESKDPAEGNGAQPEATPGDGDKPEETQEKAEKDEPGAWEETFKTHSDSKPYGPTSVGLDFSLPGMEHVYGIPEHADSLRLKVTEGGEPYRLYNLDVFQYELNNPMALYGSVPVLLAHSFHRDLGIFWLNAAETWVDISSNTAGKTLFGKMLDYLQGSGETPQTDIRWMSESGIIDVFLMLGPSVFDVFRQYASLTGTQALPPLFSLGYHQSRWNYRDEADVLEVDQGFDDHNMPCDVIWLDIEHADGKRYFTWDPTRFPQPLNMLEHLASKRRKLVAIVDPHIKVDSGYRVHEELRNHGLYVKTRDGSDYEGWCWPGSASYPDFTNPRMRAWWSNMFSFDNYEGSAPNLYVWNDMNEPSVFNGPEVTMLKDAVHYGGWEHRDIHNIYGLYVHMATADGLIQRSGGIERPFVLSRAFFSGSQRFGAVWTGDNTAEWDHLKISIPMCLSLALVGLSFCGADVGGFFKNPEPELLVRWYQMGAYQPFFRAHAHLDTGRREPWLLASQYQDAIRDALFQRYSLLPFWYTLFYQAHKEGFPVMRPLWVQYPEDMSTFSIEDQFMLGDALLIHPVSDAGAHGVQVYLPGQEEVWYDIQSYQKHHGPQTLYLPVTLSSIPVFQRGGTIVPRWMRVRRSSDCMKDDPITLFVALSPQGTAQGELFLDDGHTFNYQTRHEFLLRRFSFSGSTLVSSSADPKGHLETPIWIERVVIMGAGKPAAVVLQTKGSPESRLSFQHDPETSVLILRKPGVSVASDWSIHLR
Nature of the assay: Alpha-glucosidase II assay (4-methylumbelliferyl-alpha-D-pyranoside substrate, fluorescence). To be noted: Glucosidase 2; read-out: Glu2 IC50.

Sequence of rat sucrase (partially purified alpha-glucosidase from intestinal rat powder) (P23739 whole entry): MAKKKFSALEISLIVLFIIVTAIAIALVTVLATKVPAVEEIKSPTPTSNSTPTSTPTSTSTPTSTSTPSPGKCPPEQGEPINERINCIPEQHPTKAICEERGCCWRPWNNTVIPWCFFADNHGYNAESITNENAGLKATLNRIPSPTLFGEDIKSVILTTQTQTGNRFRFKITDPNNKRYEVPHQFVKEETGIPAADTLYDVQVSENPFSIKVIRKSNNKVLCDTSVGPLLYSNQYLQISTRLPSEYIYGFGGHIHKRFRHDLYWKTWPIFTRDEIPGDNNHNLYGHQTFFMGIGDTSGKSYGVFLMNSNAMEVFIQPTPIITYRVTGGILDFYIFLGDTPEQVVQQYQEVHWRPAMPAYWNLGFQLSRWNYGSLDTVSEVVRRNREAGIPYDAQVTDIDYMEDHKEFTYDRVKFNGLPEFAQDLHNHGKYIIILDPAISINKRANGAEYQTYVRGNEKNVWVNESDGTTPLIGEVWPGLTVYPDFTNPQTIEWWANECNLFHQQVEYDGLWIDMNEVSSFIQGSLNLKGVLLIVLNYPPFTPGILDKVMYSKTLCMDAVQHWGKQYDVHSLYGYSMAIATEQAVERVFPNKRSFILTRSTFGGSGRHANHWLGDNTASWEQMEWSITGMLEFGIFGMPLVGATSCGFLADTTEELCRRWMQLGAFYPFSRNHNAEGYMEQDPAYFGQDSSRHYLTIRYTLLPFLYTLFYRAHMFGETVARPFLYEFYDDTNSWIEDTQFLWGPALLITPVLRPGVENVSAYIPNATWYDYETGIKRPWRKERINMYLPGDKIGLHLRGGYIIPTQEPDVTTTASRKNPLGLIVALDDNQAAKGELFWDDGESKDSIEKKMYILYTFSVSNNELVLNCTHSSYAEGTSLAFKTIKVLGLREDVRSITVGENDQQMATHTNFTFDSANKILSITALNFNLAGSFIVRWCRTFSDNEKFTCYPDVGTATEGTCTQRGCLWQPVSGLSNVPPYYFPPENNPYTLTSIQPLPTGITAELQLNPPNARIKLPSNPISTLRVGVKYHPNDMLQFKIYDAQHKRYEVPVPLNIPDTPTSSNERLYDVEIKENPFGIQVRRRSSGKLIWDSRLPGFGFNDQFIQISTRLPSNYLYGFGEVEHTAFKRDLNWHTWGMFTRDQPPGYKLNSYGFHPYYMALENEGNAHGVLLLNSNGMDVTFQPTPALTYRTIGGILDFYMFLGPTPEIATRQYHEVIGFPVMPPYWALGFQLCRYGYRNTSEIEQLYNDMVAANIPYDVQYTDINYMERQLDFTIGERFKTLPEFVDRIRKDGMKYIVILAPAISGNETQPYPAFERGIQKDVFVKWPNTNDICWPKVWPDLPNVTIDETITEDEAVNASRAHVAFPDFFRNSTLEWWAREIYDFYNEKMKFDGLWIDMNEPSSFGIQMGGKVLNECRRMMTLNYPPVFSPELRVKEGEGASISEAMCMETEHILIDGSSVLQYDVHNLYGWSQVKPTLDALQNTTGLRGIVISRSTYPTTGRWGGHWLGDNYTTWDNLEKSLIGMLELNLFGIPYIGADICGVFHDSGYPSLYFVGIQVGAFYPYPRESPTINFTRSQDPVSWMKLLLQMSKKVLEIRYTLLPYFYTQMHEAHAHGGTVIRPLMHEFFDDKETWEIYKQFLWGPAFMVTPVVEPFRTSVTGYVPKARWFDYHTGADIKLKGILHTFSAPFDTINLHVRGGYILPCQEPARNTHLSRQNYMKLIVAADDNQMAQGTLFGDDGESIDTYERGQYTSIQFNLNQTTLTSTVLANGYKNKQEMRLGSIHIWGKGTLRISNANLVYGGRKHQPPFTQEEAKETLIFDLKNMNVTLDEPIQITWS

In the case of `OC[C@@H]1[C@@H](O)[C@H](O)[C@@H](O)CN1Cc1cnc(CNc2cc(-c3ncccn3)cc(C3CC3)c2)cn1` [Compound 1329, (2R,3R,4R,5S)-1-{[5-({[3-cyclopropyl-5-(pyrimidin-2-yl)phenyl]amino}methyl)pyrazin-2-yl]methyl}-2-(hydroxymethyl)piperidine-3,4,5-triol], the half-maximal inhibitory concentration (IC50) (in general, the concentration that inhibits the measured activity by half) was found to be 50 nM in assay [1], 675 nM in assay [2], 82900 nM in assay [3] and 2550 nM in assay [4].

With `[N-]=[N+]=Nc1ccc(NCCn2cc(CCN3C[C@H](O)[C@@H](O)[C@H](O)[C@H]3CO)nn2)c([N+](=O)[O-])c1` [Compound 1272, (2R,3R,4R,5S)-1-[2-(1-{2-[(4-azido-2-nitrophenyl)amino]ethyl}-1H-1,2,3-triazol-4-yl)ethyl]-2-(hydroxymethyl)piperidine-3,4,5-triol], the concentration for half-maximal inhibition (IC50) amounted to 800 nM in assay [1], 1880 nM in assay [2], 4100 nM in assay [3] and 39 nM in assay [4].

Regarding `[N-]=[N+]=Nc1ccc(N2CCN(CCN3C[C@H](O)[C@@H](O)[C@H](O)[C@H]3CO)CC2)c([N+](=O)[O-])c1` [Compound 1254, (2R,3R,4R,5S)-1-{2-[4-(4-azido-2-nitrophenyl)piperazin-1-yl]ethyl}-2-(hydroxymethyl)piperidine-3,4,5-triol], the 50% inhibitory concentration (IC50) in assay [1] was above 100000 nM; in assay [2], 6530 nM; in assay [3], above 100000 nM; in assay [4] it was 865 nM.

As to `[N-]=[N+]=Nc1ccc(NCCOC(=O)NCCN2C[C@H](O)[C@@H](O)[C@H](O)[C@H]2CO)c([N+](=O)[O-])c1` [Compound 1268, 2-[(4-azido-2-nitrophenyl)amino]ethyl N-{2-[(2R,3R,4R,5S)-3,4,5-trihydroxy-2-(hydroxymethyl)piperidin-1-yl]ethyl}carbamate], the IC50 in assay [1] was 617 nM; in assay [2] it was 363 nM; in assay [3], 1520 nM; in assay [4], 32 nM.

For the compound `[N-]=[N+]=Nc1ccc(NCCCCCCN2C[C@H](O)[C@@H](O)[C@H](O)[C@H]2CO)c(C(=O)O)c1` [Compound 1297, 5-azido-2-({6-[(2R,3R,4R,5S)-3,4,5-trihydroxy-2-(hydroxymethyl)piperidin-1-yl]hexyl}amino)benzoic acid], the IC50 in assay [1] amounted to 452 nM; in assay [2], 800 nM; in assay [3], 3520 nM; in assay [4], 97 nM.

As for `NC(=O)c1cc(-c2ncccn2)ccc1NCCCCCCN1C[C@H](O)[C@@H](O)[C@H](O)[C@H]1CO` [Compound 1266, 5-(pyrimidin-2-yl)-2-({6-[(2R,3R,4R,5S)-3,4,5-trihydroxy-2-(hydroxymethyl)piperidin-1-yl]hexyl}amino)benzamide], the IC50 in assay [1] came to 103 nM; in assay [2], 140 nM; in assay [3], 6340 nM; in assay [4], 7 nM.

Regarding `Cc1cc(NCc2cccc(CN3C[C@H](O)[C@@H](O)[C@H](O)[C@H]3CO)c2)cc(-c2ccc[nH]2)c1` [Compound 1033, (2R,3R,4R,5S)-2-(hydroxymethyl)-1-{[3-({[3-methyl-5-(1H-pyrrol-2-yl)phenyl]amino}methyl)phenyl]methyl}piperidine-3,4,5-triol], the IC50 in assay [1] is 5370 nM; in assay [2] it was 34 nM; in assay [3] it was above 100000 nM; in assay [4] it was above 100000 nM.

In the case of `O=[N+]([O-])c1cc(N2CC3CC2CO3)ccc1NCc1ccc(CN2C[C@@H](O)[C@H](O)[C@@H](O)[C@@H]2CO)cc1` (stereo in doubt) [Compound 1015, (2S,3S,4S,5R)-2-(hydroxymethyl)-1-[(4-{[(2-nitro-4-{2-oxa-5-azabicyclo[2.2.1]heptan-5-yl}phenyl)amino]methyl}phenyl)methyl]piperidine-3,4,5-triol], the IC50 in assay [1] is 129 nM; in assay [2] it was 78 nM; in assay [3], above 100000 nM; in assay [4], 2 nM.

With `Cc1cc(NCc2cccc(CN3C[C@H](O)[C@@H](O)[C@H](O)[C@H]3CO)n2)cc(-c2ncccn2)c1` [Compound 1322, (2R,3R,4R,5S)-2-(hydroxymethyl)-1-{[6-({[3-methyl-5-(pyrimidin-2-yl)phenyl]amino}methyl)pyridin-2-yl]methyl}piperidine-3,4,5-triol], the IC50 in assay [1] came out at 1110 nM; in assay [2], 481 nM; in assay [3], 99000 nM; in assay [4], 32400 nM.

With `OC[C@@H]1[C@@H](O)[C@H](O)[C@@H](O)CN1CCCCCCNc1cc(Cl)cc(-c2ncccn2)c1` [Compound 1212, (2R,3R,4R,5S)-1-(6-{[3-chloro-5-(pyrimidin-2-yl)phenyl]amino}hexyl)-2-(hydroxymethyl)piperidine-3,4,5-triol], the IC50 is 47 nM in assay [1], 89 nM in assay [2], 386 nM in assay [3] and 5 nM in assay [4].

Turning to `Cc1cc(Br)cc(NCc2ccc(CN3C[C@H](O)[C@@H](O)[C@H](O)[C@H]3CO)cc2)c1` [Compound 1024, (2R,3R,4R,5S)-1-[(4-{[(3-bromo-5-methylphenyl)amino]methyl}phenyl)methyl]-2-(hydroxymethyl)piperidine-3,4,5-triol], the half-inhibitory concentration (IC50) was 221 nM in assay [1], 14 nM in assay [2] and 21100 nM in assay [3].

As to `N#CCc1ccc(NCCCCCCN2C[C@H](O)[C@@H](O)[C@H](O)[C@H]2CO)c([N+](=O)[O-])c1` [Compound 1299, 2-[3-nitro-4-({6-[(2R,3R,4R,5S)-3,4,5-trihydroxy-2-(hydroxymethyl)piperidin-1-yl]hexyl}amino)phenyl]acetonitrile], the IC50 in assay [1] amounted to 32 nM; in assay [2], 37 nM; in assay [3], 3390 nM; in assay [4], 17 nM.

For the compound `[N-]=[N+]=Nc1ccc(NCCN2CC(OCCN3C[C@H](O)[C@@H](O)[C@H](O)[C@H]3CO)C2)c([N+](=O)[O-])c1` [Compound 1271, (2R,3R,4R,5S)-1-{2-[(1-{2-[(4-azido-2-nitrophenyl)amino]ethyl}azetidin-3-yl)oxy]ethyl}-2-(hydroxymethyl)piperidine-3,4,5-triol], the IC50 came to 1360 nM in assay [1], 266 nM in assay [2], 1900 nM in assay [3] and 539 nM in assay [4].

As to `CN(C)Cc1ccc(NCCCCCCN2C[C@H](O)[C@@H](O)[C@H](O)[C@H]2CO)c(C(F)(F)F)c1` [Compound 1259, (2R,3R,4R,5S)-1-[6-({4-[(dimethylamino)methyl]-2-(trifluoromethyl)phenyl}amino)hexyl]-2-(hydroxymethyl)piperidine-3,4,5-triol], the IC50 in assay [1] came to 238 nM; in assay [2], 417 nM; in assay [3], 1350 nM; in assay [4], 72 nM.

`Cc1cc(NCc2cccc(CN3C[C@H](O)[C@@H](O)[C@H](O)[C@H]3CO)n2)cc(N2CCOCC2)c1` [Compound 1336, (2R,3R,4R,5S)-2-(hydroxymethyl)-1-{[6-({[3-methyl-5-(morpholin-4-yl)phenyl]amino}methyl)pyridin-2-yl]methyl}piperidine-3,4,5-triol]: the IC50 was 10400 nM in assay [1], 21300 nM in assay [2], above 100000 nM in assay [3] and above 100000 nM in assay [4].

Take `N#Cc1cc(Br)cc(NCc2ccc(CN3C[C@H](O)[C@@H](O)[C@H](O)[C@H]3CO)cc2)c1` [Compound 1026, 3-bromo-5-{[(4-{[(2R,3R,4R,5S)-3,4,5-trihydroxy-2-(hydroxymethyl)piperidin-1-yl]methyl}phenyl)methyl]amino}benzonitrile]: the IC50 is 64 nM in assay [1], below 1 nM in assay [2], 37900 nM in assay [3] and below 1 nM in assay [4].

In the case of `COc1ccc(-c2ccc(CCCN3C[C@H](O)[C@@H](O)[C@H](O)[C@H]3CO)cc2)cc1` [Compound 1305, (2R,3R,4R,5S)-2-(hydroxymethyl)-1-(3-{4′-methoxy-[1,1′-biphenyl]-4-yl}propyl)piperidine-3,4,5-triol], the IC50 in assay [1] was 498 nM; in assay [2] it was 1010 nM; in assay [3], 7860 nM; in assay [4] it was below 1 nM.

As for `CN(Cc1cccc(CN2C[C@H](O)[C@@H](O)[C@H](O)[C@H]2CO)c1)c1ccc(CN2CCCO2)cc1[N+](=O)[O-]` [Compound 1020], the IC50 was found to be 1160 nM in assay [1], 129 nM in assay [2] and 76300 nM in assay [3].

The record behind these values is patent publication US20250197372A1 (priority 2020, published 2025).
